This is an account of results in patent US4190647A, “Polypeptides and methods” (Sloan-Kettering Institute for Cancer Research, priority 1979, dated 1980).

The nature of test [1]: activity of terminally substituted pentapeptides in Twomey solution compared with the basic pentapeptide of Example I. Type of test: cell-based.
The subject of test [2] is precursors present in bone marrow or spleen. The following applies: precursors from bone marrow or spleen; cited from earlier work.
A further test has as its system chicken bone marrow. Briefly: induction of Th-1 (T-cell) antigen on chicken bone marrow, cytotoxicity assay. Type of test: cell-based. The conditions noted are these: peptide at 1 μg/mil (method text: 0.1 μg/ml); control incubations subtracted. Here is the method:
To determine the pharmacological activity and characteristics of these pentapeptides, use was made of the induction of Th-1 (T-cell) antigen on chicken bone marrow for use as an assay of the peptides at a concentration of 1 μg/mil. This method is described in Science, Brand et al, Vol. 193, pp. 319-321, July, 1976. In this method, pooled cells from femur and tibiotarsus of newly hatched chicks of strain SC (Hy-Line) are fractionated by ultracentrifugation on a five-layer discontinuous bovine serum albumin (BSA) gradient (11). Cells from each interface are washed and suspended for incubation at a concentration of 5×10^6 cells per milliliter with the peptide (0.1 μg/ml) in RPMI 1630 medium supplemented with 15 mM Hepes, 5 percent y-globulin-free fetal calf serum, deoxyribonuclease (14 to 18 unit/ml), heparin (5 unit/ml), penicillin (100 unit/ml), and streptomycin (100 μg/ml). Controls are incubated with BSA (1 μg/ml) or medium alone. After incubation, the cells are tested in the cytotoxicity assay using chicken and guinea pig complement fractions. The proportion of Bu-1^+ or Th-1^+ cells in each layer are calculated as a cytotoxicity index, 100 (a-b)/a, where a and b are the percentages of viable cells in the complement control and test preparation, respectively. The percentage of cells induced is obtained by subtracting the mean values in the control incubations without inducing agents (usually 1 to 3 percent) from those of the test inductions.

Where a SMILES comes first, the peptide text is derived from it.

As to `CC[C@H](C)[C@H](NC(=O)[C@H](CC(N)=O)NC(=O)[C@H](Cc1ccc(O)cc1)NC(C)=O)C(=O)N[C@@H](CCC(N)=O)C(=O)N[C@@H](CCCCN)C(=O)O` [Example III, CH3 CONH-TYR-ASN-ILE-GLN-LYS-COOH] (Ac-YNIQK-OH), the “activity relative to the basic pentapeptide of Example I” value in test [1] (1 μg/ml in 14% Twomey solution) was “maximum and minimum activities comparable to the basic pentapeptide of Example I”. With Ubiquitin, the “concentration inducing in vitro differentiation of both T-cell and B-cell immunocytes” value in test [2] is on record as “nanogram concentrations”. As to `CC[C@H](C)[C@H](NC(=O)[C@H](CC(N)=O)NC(=O)[C@@H](N)Cc1ccc(O)cc1)C(=O)N[C@@H](CCC(N)=O)C(=O)N[C@@H](CCCCN)C(N)=O` [Example IV, H2 N-TYR-ASN-ILE-GLN-LYS-CONH2] (H-YNIQK-NH2), the “activity relative to the basic pentapeptide of Example I” value in test [1] (1 μg/ml in 6% Twomey solution) is “activity comparable to the basic pentapeptide of Example I”.

As for `C[C@H](NC(=O)[C@H](CC(N)=O)NC(=O)[C@@H](N)Cc1ccc(O)cc1)C(=O)N[C@@H](CCC(N)=O)C(=O)N[C@@H](CCCCN)C(=O)O` [Example XXIV, H2 N-TYR-ASN-ALA-GLN-LYS-COOH] (H-YNAQK-OH), the “% Induction of Th-1 (T-cell) antigen on chicken bone marrow” value (“% Induction of Th-1 (T-cell) antigen” below) in the test with chicken bone marrow was 21%. As for `CC[C@H](C)[C@H](NC(=O)[C@H](C)NC(=O)[C@@H](N)Cc1ccc(O)cc1)C(=O)N[C@@H](CCC(N)=O)C(=O)N[C@@H](CCCCN)C(=O)O` [Example XXIII, H2 N-TYR-ALA-ILE-GLN-LYS-COOH] (H-YAIQK-OH), in the test on chicken bone marrow, the “% Induction of Th-1 (T-cell) antigen” value was determined as 15%.

Consider `CC[C@H](C)[C@H](NC(=O)[C@H](CC(N)=O)NC(=O)[C@H](C)N)C(=O)N[C@@H](CCC(N)=O)C(=O)N[C@@H](CCCCN)C(=O)O` [Example XXII, H2 N-ALA-ASN-ILE-GLN-LYS-COOH] (H-ANIQK-OH), for which the “% Induction of Th-1 (T-cell) antigen” value with chicken bone marrow amounted to 12%.
